From ChEMBL document CHEMBL3885881, “DrugMatrix”

Species: Rattus norvegicus
Test: DrugMatrix - Regimen: Daily Repeat
Type: toxicity, organism-based, Sprague-Dawley
Design: regimen Daily Repeat, gender Male, age 6-8 weeks
Details: in vivo, po, 1100 mg/kg, route oral GAVAGE, dose level High, vehicle 100 % WATER; for ABSOLUTE BASOPHIL / ABSOLUTE EOSINOPHIL / ABSOLUTE LYMPHOCYTE / ABSOLUTE MONOCYTE / ABSOLUTE SEGMENTED NEUTROPHIL / BASOPHIL / EOSINOPHIL / ERYTHROCYTE COUNT / HEMATOCRIT / HEMOGLOBIN / LEUKOCYTE COUNT / LYMPHOCYTE / MEAN CORPUSCULAR HEMOGLOBIN / MEAN CORPUSCULAR HEMOGLOBIN CONCENTRATION / MEAN CORPUSCULAR VOLUME / MONOCYTE / NEUTROPHIL / NUCLEATED RED BLOOD CELLS / PLATELET COUNT: tissue Blood; for ALANINE AMINOTRANSFERASE / ALBUMIN / ALKALINE PHOSPHATASE / ASPARTATE AMINOTRANSFERASE / BLOOD UREA NITROGEN / CARBON DIOXIDE / CHLORIDE / CHOLESTEROL / CREATINE PHOSPHOKINASE / CREATININE / GLUCOSE / LACTATE DEHYDROGENASE / LIPASE / PHOSPHORUS / POTASSIUM / SODIUM / TOTAL BILIRUBIN / TOTAL PROTEIN / URIC ACID: tissue Plasma

## COc1ccnc(C[S+]([O-])c2nc3ccc(OC(F)F)cc3[nH]2)c1OC (stereo unspecified) [PANTOPRAZOLE]
72 h, time 3 day
  ABSOLUTE BASOPHIL: 0 CELLS/uL
  ABSOLUTE EOSINOPHIL: 0 CELLS/uL
  ABSOLUTE LYMPHOCYTE: 16363.67 CELLS/uL
  ABSOLUTE MONOCYTE: 197 CELLS/uL
  ABSOLUTE SEGMENTED NEUTROPHIL: 1639.33 CELLS/uL
  BASOPHIL: 0%
  EOSINOPHIL: 0%
  ERYTHROCYTE COUNT: 5.69 x10E6/uL
  HEMATOCRIT: 35.37%
  HEMOGLOBIN: 14 G/DL
  LEUKOCYTE COUNT: 18.2 x10E3/uL
  LYMPHOCYTE: 90.33%
  MEAN CORPUSCULAR HEMOGLOBIN: 24.67 pg
  MEAN CORPUSCULAR HEMOGLOBIN CONCENTRATION: 39.57 G/DL
  MEAN CORPUSCULAR VOLUME: 62.3 fL
  MONOCYTE: 1%
  NEUTROPHIL: 8.67%
  NUCLEATED RED BLOOD CELLS: 0.33 /100WBC
  PLATELET COUNT: 1283.67 x10E3/uL
  ALANINE AMINOTRANSFERASE: 51.67 u/L
  ALBUMIN: 4.03 G/DL
  ALKALINE PHOSPHATASE: 372.67 u/L
  ASPARTATE AMINOTRANSFERASE: 89 u/L
  BLOOD UREA NITROGEN: 17 mg/dL
  CARBON DIOXIDE: 29 mmol/L
  CHLORIDE: 98.67 MEQ/L
  CHOLESTEROL: 105.67 mg/dL
  CREATINE PHOSPHOKINASE: 255 u/L
  CREATININE: 0.16 mg/dL
  GLUCOSE: 134.33 mg/dL
  LACTATE DEHYDROGENASE: 182.67 u/L
  LIPASE: 11 u/L
  PHOSPHORUS: 12.2 mg/dL
  POTASSIUM: 7.39 MEQ/L
  SODIUM: 142.4 MEQ/L
  TOTAL BILIRUBIN: 0.23 mg/dL
  TOTAL PROTEIN: 5.67 G/DL
  URIC ACID: 1.67 mg/dL
120 h, time 5 day
  ABSOLUTE BASOPHIL: 0 CELLS/uL
  ABSOLUTE EOSINOPHIL: 57.33 CELLS/uL
  ABSOLUTE LYMPHOCYTE: 9481.67 CELLS/uL
  ABSOLUTE MONOCYTE: 24 CELLS/uL
  ABSOLUTE SEGMENTED NEUTROPHIL: 670.33 CELLS/uL
  BASOPHIL: 0%
  EOSINOPHIL: 0.33%
  ERYTHROCYTE COUNT: 5.57 x10E6/uL
  HEMATOCRIT: 33.33%
  HEMOGLOBIN: 13.7 G/DL
  LEUKOCYTE COUNT: 10.23 x10E3/uL
  LYMPHOCYTE: 91.67%
  MEAN CORPUSCULAR HEMOGLOBIN: 24.57 pg
  MEAN CORPUSCULAR HEMOGLOBIN CONCENTRATION: 41.13 G/DL
  MEAN CORPUSCULAR VOLUME: 59.83 fL
  MONOCYTE: 0.33%
  NEUTROPHIL: 7.67%
  NUCLEATED RED BLOOD CELLS: 0 /100WBC
  PLATELET COUNT: 1302.33 x10E3/uL
  ALANINE AMINOTRANSFERASE: 40.33 u/L
  ALBUMIN: 4.33 G/DL
  ALKALINE PHOSPHATASE: 318 u/L
  ASPARTATE AMINOTRANSFERASE: 84 u/L
  BLOOD UREA NITROGEN: 14.67 mg/dL
  CARBON DIOXIDE: 27 mmol/L
  CHLORIDE: 102.5 MEQ/L
  CHOLESTEROL: 129.33 mg/dL
  CREATINE PHOSPHOKINASE: 241.33 u/L
  CREATININE: 0.19 mg/dL
  GLUCOSE: 122.33 mg/dL
  LACTATE DEHYDROGENASE: 148 u/L
  LIPASE: 11.67 u/L
  PHOSPHORUS: 9.87 mg/dL
  POTASSIUM: 5.71 MEQ/L
  SODIUM: 145.65 MEQ/L
  TOTAL BILIRUBIN: 0.27 mg/dL
  TOTAL PROTEIN: 6.13 G/DL
  URIC ACID: 0.47 mg/dL
